From ChEMBL document CHEMBL1135318 (Bioorg Med Chem Lett, 2002) come the findings set out here.

The target in assay [1] is T1, Muscarinic acetylcholine receptor M2 (Homo sapiens) (UniProt P08172).
T1 sequence (whole entry): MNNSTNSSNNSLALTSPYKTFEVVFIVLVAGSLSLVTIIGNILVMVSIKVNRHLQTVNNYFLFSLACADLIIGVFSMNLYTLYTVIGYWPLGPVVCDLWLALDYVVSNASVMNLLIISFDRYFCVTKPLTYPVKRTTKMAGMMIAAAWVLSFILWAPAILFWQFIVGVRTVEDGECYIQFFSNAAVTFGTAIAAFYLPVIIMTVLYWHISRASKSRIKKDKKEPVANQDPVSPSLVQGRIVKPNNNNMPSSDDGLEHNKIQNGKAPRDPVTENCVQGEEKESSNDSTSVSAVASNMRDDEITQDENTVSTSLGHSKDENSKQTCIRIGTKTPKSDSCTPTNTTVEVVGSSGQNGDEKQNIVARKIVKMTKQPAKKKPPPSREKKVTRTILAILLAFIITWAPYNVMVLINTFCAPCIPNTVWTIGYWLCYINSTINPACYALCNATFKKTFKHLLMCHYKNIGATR
Put plainly: Displacement of [3H]N-methylscopolamine from membrane preparation from CHO-K1 cells for Muscarinic acetylcholine receptor M2. The class given is cell membranes. The note with it: concentration not given here. Background: Loss of bound radioactivity is the signal in a displacement assay; it reports binding, not function.

In assay [2] the target is T2, Muscarinic acetylcholine receptor M3 (Homo sapiens, UniProt P20309). Put plainly: Displacement of [3H]N-methylscopolamine from membrane preparation from CHO-K1 cells for Muscarinic acetylcholine receptor M3. The format is cell membranes. The note with it: concentration not given here.
Target sequence in this assay (P20309 whole entry, looked up): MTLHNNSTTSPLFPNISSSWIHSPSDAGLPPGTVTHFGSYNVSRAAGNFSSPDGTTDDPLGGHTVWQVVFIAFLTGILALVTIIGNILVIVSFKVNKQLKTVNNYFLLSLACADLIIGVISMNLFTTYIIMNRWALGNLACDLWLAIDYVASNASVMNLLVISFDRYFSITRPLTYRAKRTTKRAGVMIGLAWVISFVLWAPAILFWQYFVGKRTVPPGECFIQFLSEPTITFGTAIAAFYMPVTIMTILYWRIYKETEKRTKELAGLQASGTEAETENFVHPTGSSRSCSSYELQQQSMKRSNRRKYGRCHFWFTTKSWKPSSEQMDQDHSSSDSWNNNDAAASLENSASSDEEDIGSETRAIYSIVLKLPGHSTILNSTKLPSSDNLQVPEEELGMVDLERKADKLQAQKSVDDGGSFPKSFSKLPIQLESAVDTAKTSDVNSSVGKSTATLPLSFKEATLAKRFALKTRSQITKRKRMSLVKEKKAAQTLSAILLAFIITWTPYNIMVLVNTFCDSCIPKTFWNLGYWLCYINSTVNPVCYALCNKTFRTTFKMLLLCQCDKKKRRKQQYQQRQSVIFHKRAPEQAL
Assay [3] concerns the target T2, Muscarinic acetylcholine receptor M3. Put plainly: Displacement of [3H]N-methylscopolamine from membrane preparation from CHO-K1 cells for Muscarinic acetylcholine receptor M3; value given as 20-50%. The format is cell membranes. The note with it: concentration not given here.
Target sequence in this assay (P20309 whole entry, looked up): as above
Assay [4] concerns the target T1, Muscarinic acetylcholine receptor M2 (Homo sapiens). Kind of assay: Displacement of [3H]N-methylscopolamine from membrane preparation from CHO-K1 cells for Muscarinic acetylcholine receptor M2; value given as 20-50%. The class given is cell membranes. The note with it: concentration not given here.
Assay [5] deals with T3, Muscarinic acetylcholine receptor M2 (Homo sapiens, UniProt P08172).
T3 sequence (P08172 whole entry): T1 sequence (whole entry)
Put plainly: In vitro affinity for muscarinic M2 receptor.

Assay [6] deals with T2, Muscarinic acetylcholine receptor M3. Put plainly: In vitro affinity for muscarinic M3 receptor.
Target sequence in this assay (P20309 whole entry): as the sequence (P20309 whole entry, looked up) above

Each structure is given as a SMILES string.

Usually inhibition stands for the relative decrease from the control value, in per cent. A lower inhibition goes with a response near the control. With `O=C(c1cccs1)N(C1CCC1)C1CCN(Cc2ccccc2)CC1`, the inhibition in assay [1] and in assay [2] was less than 20% in each case.

In the case of `O=C(c1ccccc1)N(C1CCC1)C1CCN(Cc2ccccc2)CC1`, the inhibition in assay [3] and in assay [4] was 20% in each case.

The term Ki denotes the equilibrium dissociation constant of an inhibitor or competing ligand from its target. Turning to `O=C(c1ccccc1)N(Cc1ccccc1)C1CCN(Cc2ccccc2)CC1`, the Ki in assay [5] was 0.631 µM; in assay [6] it was 0.158 µM.
